# Reference: ChEMBL document CHEMBL4311969, “Polygala tenuifolia-Acori tatarinowii herbal pair as an inspiration for substituted cinnamic α-asaronol esters: Design, synthesis, anticonvulsant activity, and inhibition of lactate dehydrogenase study” (Eur J Med Chem, 2019)
# Several values for one entry are separate records, joined by “and”; a condition that tells them apart may be missing. Identical values can stand only once. Activity calls are given as the source filed them. The calls are words filed in the database; no cut-off is given here.
# Assays:
# [1] = system: Mus musculus; experiment: Anticonvulsant activity in Kunming mouse assessed as MES-induced hind limb extension at 50 mg/kg, ip administered 0.5 and 2 hrs before MES stimulation relative to control; assay type: functional
# [2] = system: Mus musculus; experiment: Anticonvulsant activity in Kunming mouse assessed as MES-induced hind limb extension at 100 mg/kg, ip administered 0. 5 to 4 hrs before MES stimulation relative to control; assay type: functional
# [3] = system: Mus musculus; experiment: Anticonvulsant activity in Kunming mouse assessed as reduction in ScPTZ-induced seizure at 300 mg/kg, ip administered 0.25 to 2 hrs before ScPTZ stimulation relative to control; assay type: functional; set-up: scale not given: the % may be the effect or the level left
# [4] = system: Mus musculus; experiment: Anticonvulsant activity in Kunming mouse assessed as reduction in Sc3-MP-induced clonic seizure rate at 300 mg/kg, ip administered 0.5 hrs before Sc3-MP stimulation relative to control; assay type: functional; set-up: scale not given: the % may be the effect or the level left
# [5] = system: Mus musculus; experiment: Anticonvulsant activity in Kunming mouse assessed as MES-induced hind limb extension at 100 mg/kg, ip administered 0. 5 to 2 hrs before MES stimulation; assay type: functional, organism-based
# [6] = Protective index, ratio of TD50 for neurotoxicity against ip dosed Kunming mouse assessed as time remained in rod measured at 0.5 hrs by rotarod test to ED50 for anticonvulsant activity in ip dosed Kunming mouse assessed as MES-induced hind limb extension administered 0.5 hrs; assay type: toxicity, organism-based; settings: in vivo, read-out: PI
# [7] = system: Mus musculus; experiment: Anticonvulsant activity in Kunming mouse assessed as reduction in ScPTZ-induced clonic seizure at 100 mg/kg, ip administered 0.5 hrs before ScPTZ stimulation relative to control; assay type: functional; set-up: scale not given: the % may be the effect or the level left
# [8] = system: Mus musculus; experiment: Anticonvulsant activity in Kunming mouse assessed as reduction in Sc3-MP-induced seizure at 300 mg/kg, ip administered 0.25 to 2 hrs before Sc3-MP stimulation relative to control; assay type: functional; set-up: scale not given: the % may be the effect or the level left
# [9] = system: Mus musculus; experiment: Anticonvulsant activity in Kunming mouse assessed as reduction in Sc3-MP-induced seizure ip dosed measured at 0.5 hrs before Sc3-MP stimulation; assay type: functional
# [10] = system: Mus musculus; experiment: Anticonvulsant activity in Kunming mouse assessed as reduction in ScPTZ-induced seizure at 100 mg/kg, ip administered 0.25 to 2 hrs before ScPTZ stimulation relative to control; assay type: functional
# [11] = system: Mus musculus; experiment: Anticonvulsant activity in Kunming mouse assessed as reduction in ScPTZ-induced tonic seizure rate at 300 mg/kg, ip administered 0.5 hrs before ScPTZ stimulation relative to control; assay type: functional; set-up: scale not given: the % may be the effect or the level left
# [12] = (§1) Protective index, ratio of TD50 for neurotoxicity against ip dosed Kunming mouse assessed as time remained in rod measured at 0.5 hrs by rotarod test to ED50 for […] activity in ip dosed Kunming mouse assessed as reduction in formalin-induced paw licking administered 0.5 hrs before formalin stimulation; assay type: toxicity, organism-based; settings: in vivo, read-out: PI
# [13] = system: Mus musculus; experiment: Anticonvulsant activity in ip dosed Kunming mouse assessed as MES-induced hind limb extension administered 0.5 hrs before MES stimulation; assay type: functional
# [14] = system: Mus musculus; experiment: Anticonvulsant activity in Kunming mouse assessed as reduction in ScPTZ-induced tonic seizure rate at 100 mg/kg, ip administered 0.5 hrs before ScPTZ stimulation relative to control; assay type: functional; set-up: scale not given: the % may be the effect or the level left
# [15] = as §1, with “Sc3-MP-induced seizure” for “formalin-induced paw licking”, “Sc3-MP” for “formalin”; assay type: toxicity, organism-based; settings: in vivo, read-out: PI
# [16] = system: Mus musculus; experiment: Anticonvulsant activity in Kunming mouse assessed as reduction in Sc3-MP-induced tonic seizure rate at 300 mg/kg, ip administered 0.5 hrs before Sc3-MP stimulation relative to control; assay type: functional; set-up: scale not given: the % may be the effect or the level left
# [17] = system: Mus musculus; experiment: […] activity in ip dosed Kunming mouse assessed as reduction in formalin-induced paw licking administered 0.5 hrs before formalin stimulation; assay type: functional
# [18] = system: Mus musculus; experiment: Anticonvulsant activity in Kunming mouse assessed as reduction in ScPTZ-induced clonic seizure at 300 mg/kg, ip administered 0.5 hrs before ScPTZ stimulation relative to control; assay type: functional; set-up: scale not given: the % may be the effect or the level left
# [19] = Neurotoxicity against ip dosed Kunming mouse assessed as time remained in rod measured at 0.5 hrs by rotarod test; assay type: toxicity, organism-based; settings: in vivo
# [20] = Neurotoxicity against Kunming mouse assessed as time remained in rod at 100 mg/kg, ip administered 0.5 to 2 hrs by rotarod test; assay type: toxicity, organism-based; settings: in vivo
# [21] = system: Mus musculus; experiment: Anticonvulsant activity in ip dosed Kunming mouse assessed as reduction in ScPTZ-induced seizure administered 0.5 hrs before ScPTZ stimulation; assay type: functional
# [22] = as §1, with “ScPTZ-induced seizure” for “formalin-induced paw licking”, “ScPTZ” for “formalin”; assay type: toxicity, organism-based; settings: in vivo, read-out: PI
# [23] = species on record: Homo sapiens; experiment: Inhibition of human LDH1 assessed as remaining activity at 0.5 mM using sodium pyruvate as substrate by UV-VIS spectrophotometry method relative to control
# [24] = species on record: Homo sapiens; experiment: Inhibition of human LDH5 assessed as remaining activity at 0.5 mM using sodium pyruvate as substrate by UV-VIS spectrophotometry method relative to control
# [25] = species on record: Homo sapiens; experiment: Inhibition of human LDH1 at 0.5 mM using sodium pyruvate as substrate measured for 60 sec for every 5 mins by LC/MS-MS analysis
# [26] = system: Mus musculus; experiment: Anticonvulsant activity in Kunming mouse assessed as reduction in ScPTZ-induced mortality rate at 300 mg/kg, ip administered 0.5 hrs before ScPTZ stimulation relative to control; assay type: functional; set-up: scale not given: the % may be the effect or the level left
# [27] = species on record: Homo sapiens; experiment: Inhibition of human LDH1 at 0.5 mM using sodium pyruvate as substrate by UV-VIS spectrophotometry method relative to control
# [28] = species on record: Homo sapiens; experiment: Inhibition of human LDH5 at 0.5 mM using sodium pyruvate as substrate measured for 60 sec for every 5 mins by LC/MS-MS analysis
# [29] = species on record: Homo sapiens; experiment: Inhibition of human LDH5 at 0.5 mM using sodium pyruvate as substrate by UV-VIS spectrophotometry method relative to control
# [30] = system: Mus musculus; experiment: Anticonvulsant activity in Kunming mouse assessed as MES-induced hind limb extension at 100 mg/kg, ip administered 4 hrs before MES stimulation; assay type: functional, organism-based
# [31] = system: Mus musculus; experiment: Anticonvulsant activity in Kunming mouse assessed as MES-induced hind limb extension at 50 mg/kg, ip administered 0.5 to 4 hrs before MES stimulation relative to control; assay type: functional
# [32] = system: Mus musculus; experiment: Anticonvulsant activity in Kunming mouse assessed as MES-induced hind limb extension at 100 mg/kg, ip administered 0. 5 hrs before MES stimulation relative to control; assay type: functional
# [33] = system: Mus musculus; experiment: Anticonvulsant activity in Kunming mouse assessed as reduction in ScPTZ-induced seizure at 100 mg/kg, ip administered 1 hr relative to control; assay type: functional; set-up: scale not given: the % may be the effect or the level left
# [34] = system: Mus musculus; experiment: Anticonvulsant activity in Kunming mouse assessed as MES-induced hind limb extension at 100 mg/kg, ip administered 3 hrs before MES stimulation; assay type: functional, organism-based
# [35] = system: Mus musculus; experiment: Anticonvulsant activity in Kunming mouse assessed as reduction in ScPTZ-induced seizure at 100 mg/kg, ip administered 0.5 hrs before ScPTZ stimulation relative to control; assay type: functional; set-up: scale not given: the % may be the effect or the level left
Structure (SMILES),Activity [2],Activity [3] [%],Activity [4] [%],Activity [5],selectivity ratio at 0.5 h [6],Activity [7] [%],ED50 [9],Activity [10],Activity [11] [%],selectivity ratio at 0.5 h [12],ED50 [13],Activity [14] [%],selectivity ratio at 0.5 h [15],Activity [16] [%],ED50 [17],Activity [18] [%],TD50 at 0.5 h [19],Activity [20],ED50 [21],selectivity ratio at 0.5 h [22],further results
COc1cc(OC)c(OC)cc1/C=C/COC(=O)/C=C/c1cc(OC)c(OC)cc1OC,25 - 100%,50,100,Active,> 13.6,100,> 300 mg/kg and > 675 µmol/kg,inactive,25,12.5,165 µmol/kg and 73.5 mg/kg,100,3.3,75,180 to 225 µmol/kg,100,> 2250 µmol/kg and > 1000 mg/kg,Non-Toxic,> 200 mg/kg and 450 µmol/kg to 675 µmol/kg,5,Activity [1]: inactive; Activity [8]: 0%
CCCC(CCC)C(=O)O,,,,,,,,,,,,,,,,,,,,,Activity [23]: 100%; Activity [24]: 100%
COc1ccccc1/C=C/C(=O)OC/C=C/c1cc(OC)c(OC)cc1OC,25 - 100%,50,100,Active,> 25.6,100,> 300 mg/kg and 780 µmol/kg,inactive,50,> 8.9,39 mg/kg and 101 µmol/kg,100,3.3,100,113 mg/kg and 294 µmol/kg,100,> 1000 mg/kg and 2600 µmol/kg,Non-Toxic,240 mg/kg and 625 µmol/kg,> 4.2,Activity [1]: 75%; inhibition [25]: 2%; Activity [26]: 25%; inhibition [27]: inactive; inhibition [28]: 2%; inhibition [29]: inactive; Activity [30]: Active; Activity [31]: 50%; Activity [32]: 100%
COc1cc(OC)c(OC)cc1/C=C/COC(=O)/C=C/c1ccc(F)cc1,25 - 100%,50,100,Active,> 28.9,100,> 300 mg/kg and > 806 µmol/kg,inactive,0,23,92.9 µmol/kg and 34.6 mg/kg,100,5,75,43.4 mg/kg and 116 µmol/kg,100,> 2690 µmol/kg and > 1000 mg/kg,Non-Toxic,167 mg/kg and 449 µmol/kg,> 5.9,Activity [1]: 75%; inhibition [25]: 5%; inhibition [27]: < 5%; inhibition [28]: 5%; inhibition [29]: < 9%; Activity [33]: 75%; Activity [30]: Active; Activity [34]: Active; Activity [31]: 50%; Activity [35]: 100%; Activity [32]: 100%
COc1ccc(/C=C/C(=O)OC/C=C/c2cc(OC)c(OC)cc2OC)cc1,25 - 100%,50,100,Active,> 14.2,100,> 300 mg/kg and > 780 µmol/kg,inactive,0,> 8.2,70.6 mg/kg and 184 µmol/kg,100,3.3,100,122 mg/kg and 317 µmol/kg,100,> 1000 mg/kg and > 2600 µmol/kg,Non-Toxic,244 mg/kg and 634 µmol/kg,> 4.1,inhibition [27]: inactive; Activity [8]: 0%; inhibition [29]: inactive; Activity [33]: 75%; Activity [34]: Active; Activity [31]: 50%; Activity [35]: 100%
NC(=O)N1c2ccccc2C=Cc2ccccc21 [CARBAMAZEPINE],,,,,,,,,,,18.1 mg/kg and 76.5 µmol/kg,,,,,,303 µmol/kg,,> 100 mg/kg and > 423 µmol/kg,,Activity [23]: 100%; Activity [24]: 100%
